Consider 10 compounds from PubChem BioAssay (NCI).

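Dose response: 5 concentrations. Exposure: 48 h. Format: 96-well plates. Endpoint: linear interpolation; highest concentration if not reached. TGI is the concentration that stops growth completely.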 Where a SMILES comes first, the peptide text is derived from it. [ ]: non-standard residue; d: D form. Phe(4-NO2) = N[CH](Cc1ccc([N+](=O)[O-])cc1)C(=O)O

Test systems include A498 renal; ACHN renal; BT-549 breast; CCRF-CEM leukemia; DU-145 prostate; EKVX NSCLC; HS 578T breast; M14 melanoma; MDA-MB-231 breast; MDA-MB-435; NCI-H226 lung; OVCAR-5 ovarian; RPMI-8226 leukemia; SF-539 CNS; SK-MEL-2 melanoma; SK-MEL-5 melanoma; SNB-19 CNS; U251 CNS; UACC-257 melanoma; MDA-N.
Common to all, as to assay: DTP human tumour cell line panel, 48 h

Regarding `CC(NC(=O)C(Cc1ccc([N+](=O)[O-])cc1)NC(=O)C(N)CCCCN)C(=O)NC(Cc1ccc([N+](=O)[O-])cc1)C(N)=O` (configuration not stated) (H-K[Phe(4-NO2)]A[Phe(4-NO2)]-NH2; configuration not given here), the TGI – broadly, the concentration giving total growth inhibition – with A498 renal was over 100 µM; with ACHN renal, over 100 µM; in the assay with BT-549 breast, over 54 µM; in the assay on CCRF-CEM leukemia, over 100 µM; in the assay on DU-145 prostate, over 100 µM; in the assay with EKVX NSCLC it was over 100 µM. Further, the TGI in the assay with HS 578T breast was 99.6 µM; with M14 melanoma, over 74.3 µM; in the assay on MDA-MB-231 breast, over 69.9 µM; with MDA-MB-435, over 71.5 µM; in the assay with NCI-H226 lung it was over 100 µM; in the assay with OVCAR-5 ovarian, over 100 µM. Besides, the total growth inhibition concentration (TGI) was over 44.7 µM in the assay with RPMI-8226 leukemia; over 83.9 µM with SF-539 CNS; over 86.6 µM with SK-MEL-2 melanoma; 51.5 µM in the assay on SK-MEL-5 melanoma; over 100 µM in the assay with SNB-19 CNS; over 100 µM in the assay with U251 CNS. This compound displayed a TGI with UACC-257 melanoma of over 84.7 µM.
In the case of `O=C(c1nc2ccccc2[nH]c1=O)C(O)c1ccco1` (configuration not stated), the TGI in the assay on ACHN renal, in the assay on CCRF-CEM leukemia, with EKVX NSCLC, with M14 melanoma, with NCI-H226 lung and in the assay on OVCAR-5 ovarian was over 100 µM in each case. Moreover, the total growth inhibition concentration (TGI) in the assay on RPMI-8226 leukemia, with SF-539 CNS, with SK-MEL-2 melanoma, in the assay with SK-MEL-5 melanoma, in the assay with SNB-19 CNS and in the assay with U251 CNS was over 100 µM in each case. In the assay with UACC-257 melanoma, this compound had a TGI of over 100 µM.
With `O=C(Nc1cccc(C(F)(F)F)c1)C(=O)C1NC(=S)NC1=O` (configuration not stated), the TGI in the assay on A498 renal, in the assay with ACHN renal, in the assay on CCRF-CEM leukemia, with EKVX NSCLC, in the assay on M14 melanoma and in the assay with NCI-H226 lung was over 100 µM in each case. The TGI with OVCAR-5 ovarian, with RPMI-8226 leukemia, in the assay on SF-539 CNS, in the assay on SK-MEL-2 melanoma, in the assay on SK-MEL-5 melanoma and with SNB-19 CNS was over 100 µM in each case. The TGI in the assay on UACC-257 melanoma is over 100 µM.
Consider `C/C=C1\CC2C(=O)CCC2C2c3ccccc3OC12` (configuration not stated), for which the TGI was over 100 µM with ACHN renal; over 100 µM in the assay on CCRF-CEM leukemia; 10.7 µM with DU-145 prostate; over 100 µM with EKVX NSCLC; over 100 µM in the assay with HS 578T breast; over 100 µM with M14 melanoma. The TGI with MDA-MB-231 breast is over 100 µM; in the assay on MDA-MB-435 it was over 100 µM; in the assay on MDA-N, 0.24 µM; with NCI-H226 lung, over 100 µM; with OVCAR-5 ovarian, over 100 µM; with RPMI-8226 leukemia it was over 100 µM. Also, the TGI in the assay on SF-539 CNS, in the assay on SK-MEL-2 melanoma, with SK-MEL-5 melanoma, in the assay on SNB-19 CNS, with U251 CNS and in the assay on UACC-257 melanoma was over 100 µM each time.
As for `CCOC(=O)Cn1c(=O)c2nc(SC)sc2n(-c2ccccc2)c1=S`, the TGI in the assay with ACHN renal was 43.4 µM; in the assay with CCRF-CEM leukemia it was over 100 µM; in the assay with DU-145 prostate, over 100 µM; with HS 578T breast, 34.4 µM; with M14 melanoma it was 70.4 µM; in the assay with MDA-MB-231 breast, 72.9 µM. In addition, the TGI is over 100 µM in the assay with MDA-MB-435; over 100 µM in the assay on MDA-N; 36.6 µM in the assay with NCI-H226 lung; over 100 µM with OVCAR-5 ovarian; over 100 µM in the assay with RPMI-8226 leukemia; 31.6 µM with SF-539 CNS. Also, the TGI is 63.1 µM in the assay with SK-MEL-2 melanoma; over 100 µM in the assay with SK-MEL-5 melanoma; 30.6 µM in the assay on SNB-19 CNS; 29.3 µM in the assay on U251 CNS; over 100 µM in the assay on UACC-257 melanoma.
Take `C=CCN1COc2c(cc3c4c(cccc24)C(=O)O3)C1`: the TGI in the assay on A498 renal was 52.1 µM; in the assay with ACHN renal, over 10 µM; with CCRF-CEM leukemia, 44.8 µM; in the assay with EKVX NSCLC, 92 µM; with M14 melanoma, 50.1 µM; in the assay with NCI-H226 lung, over 100 µM. Moreover, the TGI with OVCAR-5 ovarian is over 100 µM; in the assay with RPMI-8226 leukemia it was 97.1 µM; in the assay on SK-MEL-2 melanoma, over 100 µM; in the assay with SK-MEL-5 melanoma it was over 100 µM; in the assay with SNB-19 CNS it was over 100 µM; in the assay on U251 CNS, over 100 µM. For the same compound, the concentration for total growth inhibition (TGI) in the assay with UACC-257 melanoma was determined as 60.7 µM.
For `COc1ccc2nc3c([N+](=O)[O-])ccc(NCCCN(C)C)c3c(NCCCN(C)C)c2c1`, the TGI in the assay on CCRF-CEM leukemia was 2.4 µM; with DU-145 prostate it was over 10 µM; with EKVX NSCLC it was 5.09 µM; in the assay with M14 melanoma, over 10 µM; with MDA-MB-231 breast, 2.87 µM; with MDA-MB-435, over 10 µM. For the same compound, the TGI was 2.53 µM in the assay on RPMI-8226 leukemia, 3.46 µM in the assay with SK-MEL-5 melanoma and over 10 µM in the assay on UACC-257 melanoma.
Consider `CC(=O)C1Cn2c(=O)c3cc4ccccc4cc3c(=O)n2C=C1C` (configuration not stated), for which the TGI with A498 renal, in the assay on ACHN renal, with CCRF-CEM leukemia, with EKVX NSCLC, in the assay with M14 melanoma and with NCI-H226 lung was over 100 µM in each case. Moreover, the TGI in the assay on OVCAR-5 ovarian, in the assay on RPMI-8226 leukemia, with SF-539 CNS, with SK-MEL-2 melanoma, in the assay on SK-MEL-5 melanoma and in the assay with SNB-19 CNS was over 100 µM in each case. Moreover, the TGI with U251 CNS and with UACC-257 melanoma was over 100 µM each time.
`N#CC1=C(c2ccccc2)C(=C2Nc3ccccc3N2)C2S/C(=C\c3ccccc3)C(=O)N2C1=N` (configuration not stated): the TGI in the assay on A498 renal turned out to be 7.73 µM; with ACHN renal it was 10.1 µM; in the assay with CCRF-CEM leukemia, 6.66 µM; in the assay on EKVX NSCLC it was 5.2 µM; with M14 melanoma, 6.56 µM; with NCI-H226 lung, 3.73 µM. Moreover, the TGI with OVCAR-5 ovarian came to 5.84 µM; in the assay on SF-539 CNS, 3.35 µM; in the assay with SK-MEL-2 melanoma it was 4.05 µM; in the assay on SK-MEL-5 melanoma, 3.3 µM; in the assay with SNB-19 CNS, 11.7 µM; in the assay on U251 CNS, 5.54 µM. Besides, in the assay with UACC-257 melanoma, the TGI amounted to 15.7 µM.
`C/C(CC(=O)Nc1cc(C)ccc1C)=N/N=C(N)N`: the TGI in the assay with A498 renal, in the assay with ACHN renal, in the assay with CCRF-CEM leukemia, with EKVX NSCLC, in the assay on M14 melanoma and in the assay with NCI-H226 lung was over 100 µM throughout. Besides, the concentration for total growth inhibition (TGI) in the assay on OVCAR-5 ovarian, with RPMI-8226 leukemia, in the assay on SF-539 CNS, with SK-MEL-2 melanoma, in the assay on SK-MEL-5 melanoma and in the assay with U251 CNS was over 100 µM in each case. Also, in the assay on UACC-257 melanoma, the TGI was over 100 µM.
